# Test results taken from PubChem BioAssay AID1996.
# Details: buffer; pH 7.4; 200.0 µM
row,solubility kinetic,SMILES
1,23.2 µg/mL,Cc1ccc(S(=O)(=O)N2CCCCC2)cc1NC(=O)c1ccccc1Cl
2,> 50.4 µg/mL,O=C(CN1C(=O)NC2(CCCC2)C1=O)NCc1ccc(Cl)cc1
3,0.4 µg/mL,O=C(Cc1ccccc1)Nc1nc(-c2ccc(F)c(F)c2)cs1
4,4.5 µg/mL,Cc1occc1C(=O)Nc1cccc(Cl)c1Cl
5,> 50.2 µg/mL,COC(=O)c1ccccc1-n1c(C)nc(=O)c(-c2ccccc2)c1C
6,> 50.6 µg/mL,O=C(CC1SC(N2CCOCC2)=NC1=O)Nc1ccc(F)cc1 (stereo not given)
7,< 0.3 µg/mL,Cc1ccc(O)c(NC(=O)c2cc(-c3ccccc3)on2)c1
8,> 52.4 µg/mL,COCCNC(=O)CSc1nccn1Cc1ccc2c(c1)OCO2
9,> 44 µg/mL,O=[N+]([O-])c1cccc(S(=O)(=O)NCc2ccncc2)c1
10,> 35.3 µg/mL,CCN1CNC(=S)N(c2cccc(C)c2)C1
11,> 46.9 µg/mL,Cc1nnc(SCC(=O)NC(=O)NCc2ccco2)s1
12,> 41.3 µg/mL,CC1CCCCC1NC(=O)c1ccc2c(c1)OCCO2 (stereo not given)
13,3.5 µg/mL,CC(=O)N/C(N)=N/c1nc(=O)c2ccccc2s1
14,29.5 µg/mL,Cc1ccc(-c2csc(NC(=O)CN3CC(C)OC(C)C3)n2)cc1 (stereo not given)
15,1.6 µg/mL,Fc1cccc(NC(=S)NCc2ccccc2Cl)c1
16,> 45 µg/mL,CC(CC(=O)O)CC(=O)Nc1ccc(Br)cc1 (stereo not given)
17,> 49.3 µg/mL,COc1ccccc1Nc1nc(N)nc(CN2CCC(C)CC2)n1
18,5.3 µg/mL,O=C(COC(=O)C1=COCCO1)Nc1cc(Cl)c(Cl)cc1Cl
19,8.9 µg/mL,CC1(C)C2CCC1(C)C(NC(=O)/C=C/c1ccccc1)C2 (stereo not given)
20,42.8 µg/mL,O=[N+]([O-])c1cccc(S(=O)(=O)NC2CC3CCC2C3)c1 (stereo not given)

row,solubility kinetic,SMILES
1,> 56 µg/mL,CC(C)CN(C(=O)CSc1nc(N)cc(N)n1)C1CCS(=O)(=O)C1 (stereo not given)
2,0.6 µg/mL,O=C(Nc1ccccc1)Nc1csc2ccccc12
3,48.2 µg/mL,O=C1CC(N2CCN(c3ccc(F)cc3)CC2)C(=O)N1Cc1ccccc1 (stereo not given)
4,> 49.1 µg/mL,COc1ccc(CCC(=O)NCC(=O)OCc2ccccc2)cc1
5,6.1 µg/mL,COc1ccc(C(=O)NC(=S)N2CCN(c3ccccc3O)CC2)cc1
6,4.2 µg/mL,COc1cc2cc(NC(C)=O)cc(NCc3ccccc3)c2cc1OC
7,> 42.1 µg/mL,CSCCC1NC(=S)N(Cc2ccccc2)C1=O (stereo not given)
8,4.1 µg/mL,Cc1cc(C(=O)NCc2ccccc2Cl)c2ccccc2n1
9,> 45.7 µg/mL,Cc1onc(-c2ccccc2Cl)c1C(=O)N1CCCCC1
10,29 µg/mL,COc1ccc(OC)c(NC(=O)COC(=O)CCc2ccc(S(=O)(=O)N3CCOCC3)cc2)c1
11,2.5 µg/mL,O=C(COC(=O)c1cccs1)Nc1ccccc1C(F)(F)F
12,> 50.2 µg/mL,Cc1c(N(C)CS(=O)(=O)O)c(=O)n(-c2ccccc2)n1C.[Na]
13,> 43.4 µg/mL,O=C1NN=C(c2ccccc2)CC1c1c[nH]c2ccccc12 (stereo not given)
14,> 34 µg/mL,CC1CCCCC1N=C1NC(C)(C)CS1 (stereo not given)
15,< 0.2 µg/mL,Cc1ccc(C(C)C)c(OC/C(O)=C(\C#N)c2nc3ccccc3[nH]2)c1
16,0.7 µg/mL,C=CCOc1nc(-c2ccccc2Cl)nc2ccccc12
17,> 40.4 µg/mL,CCCCc1nnc(NC(=O)C2=COCCO2)s1
18,> 47.5 µg/mL,Cl.O=C(CSC1=NCCN1)Nc1cccc([N+](=O)[O-])c1
19,1.4 µg/mL,COc1ccc(NC(=O)c2cccc3ccccc23)cc1
20,> 41.2 µg/mL,Cc1cccnc1NC(=O)CCC(=O)c1cccs1

row,solubility kinetic,SMILES
1,27.2 µg/mL,COC(=O)c1c(C)[nH]c(C(=O)CC#N)c1C
2,> 59.6 µg/mL,Cc1ccc(S(=O)(=O)NC(=O)Nc2cccc(S(=O)(=O)N(C)C)c2)cc1
3,0.9 µg/mL,NCCCCCC(=O)O
4,> 34.5 µg/mL,Cc1ccc(C(=O)NC(C)c2ccncc2)o1 (stereo not given)
5,> 45.4 µg/mL,CC1CCCN(C(=O)CNS(=O)(=O)c2cccs2)C1 (stereo not given)
6,> 49 µg/mL,CC(C)OCCCNC(=O)CN1C(=O)c2cccc3cccc1c23
7,11.3 µg/mL,COc1ccc(C(=O)OCC(=O)c2ccc3c(c2)NC(=O)CO3)cc1S(=O)(=O)N1CCOCC1
8,1.9 µg/mL,CC(=O)c1ccc(NC(=O)c2ccc3nc(C)sc3c2)cc1
9,1.6 µg/mL,Cc1cc(C)cc(NC(=O)CC2Oc3ccc(C)cc3NC2=O)c1 (stereo not given)
10,15.2 µg/mL,N/C(Cc1cccc2ccccc12)=N\O
11,> 48 µg/mL,O=C(O)c1cccnc1SCc1cn2cc(Cl)ccc2n1
12,> 49.7 µg/mL,Cc1ccc(S(=O)(=O)CC(O)COc2ccc(C#N)cc2)cc1 (stereo not given)
13,60.3 µg/mL,CC(=O)Nc1ccc(S(=O)(=O)N(C)CC(=O)OCC(=O)N2CCCCCC2)cc1
14,> 50.2 µg/mL,O=C1CN(C(=O)COc2ccc(F)cc2Cl)c2ccccc2N1
15,7.1 µg/mL,Cc1cc2c(cc1C)CN(c1ccccc1)C2
16,> 30 µg/mL,Cc1cccc2c3c([nH]c12)CCN(C)C3
17,23.9 µg/mL,CC(C)(C)c1nc(N)nc(=O)[nH]1
18,15.5 µg/mL,Cc1cc(C(=O)OCC(=O)NC2CC2)ccc1[N+](=O)[O-]
19,4.5 µg/mL,Cc1cc2oc(=O)cc(CN3CCCCC3C)c2cc1Cl (stereo not given)
20,22.5 µg/mL,O=C(OCc1cc(=O)n2ccsc2n1)c1ccccc1O
